Columns and labels:
Type in all cases: cell-based
CXCR5 [1] = molecular target: T1, CXCR5 (Homo sapiens, UniProt P32302); test: β-arrestin assay (DiscoverX eXpress β-arrestin cells expressing CXCR5)
T1 sequence (P32302 1-372): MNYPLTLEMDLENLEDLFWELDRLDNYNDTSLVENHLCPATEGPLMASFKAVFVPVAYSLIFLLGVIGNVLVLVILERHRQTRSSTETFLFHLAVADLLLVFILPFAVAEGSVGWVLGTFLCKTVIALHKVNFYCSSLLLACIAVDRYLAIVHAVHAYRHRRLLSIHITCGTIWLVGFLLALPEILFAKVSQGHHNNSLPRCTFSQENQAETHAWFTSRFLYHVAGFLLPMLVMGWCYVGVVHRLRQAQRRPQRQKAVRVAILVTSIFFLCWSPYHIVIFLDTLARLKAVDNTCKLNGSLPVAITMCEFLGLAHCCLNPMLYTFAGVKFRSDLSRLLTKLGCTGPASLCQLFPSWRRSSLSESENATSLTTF
Excerpt: The β-arrestin assays developed by DiscoverX employed herein detect binding of a ligand to the GPCR by directly measuring β-arrestin recruitment to the GPCR independent of G-protein coupling. In this system, β-arrestin is fused to an N-terminal deletion mutant of β-gal (termed the enzyme acceptor of EA) and the GPCR of interest is fused to a smaller (42 amino acids), weakly complementing fragment. In cells that stably express these fusion proteins, ligand stimulation results in the interaction of β-arrestin and the tagged GPCR, forcing the complementation of the two β-gal fragments and resulting in the formation of a functional enzyme that converts substrate to detectable signal. In practice, eXpress β-arrestin cells expressing the receptor of interest are incubated with either compound alone (agonist mode), or compound plus native ligand (allosteric mode). A chemiluminescent substrate is then added to determine the extent of enzyme activity, and by inference, arrestin recruitment to GPCR.
The β-arrestin assays for CXCR5 Compound 14 were run in both agonist and allosteric modes. In agonist mode, the CXCR5-expressing eXpress β-arrestin cells were incubated with a dose curve of CXCR5 Compound 14 in the absence of CXCL13. […] In allosteric mode, Compound 14 is co-incubated with CXCL13, and the CXCR5 response of the eXpress cells is quantified.

CXCR5 [2] = molecular target: T1, CXCR5; test: Chemotaxis assay (Transwell, CXCL13 dose-response, 300.19 cells expressing CXCR5); settings: 300.19 cells incubated with compound, compared to the vehicle control
Excerpt: Chemotaxis assays were utilized to determine the effect of compound on the directed migration of cells in response to chemokine. 300.19 cells that express CXCR5 were placed in the upper chamber of a Transwell chemotaxis plate (Corning) and allowed to migrate through a polycarbonate membrane to a lower chamber containing the appropriate receptor-specific ligand. To test for antagonist or potentiating activity, cells were mixed with the desired concentration of compound prior to addition to the upper chamber. Conversely, agonist activity was determined by adding compound in the bottom chamber only without endogenous chemokine. The effect of compound is quantified by several parameters, including the extent of maximum response, the shift of agonist dose-response curves, and the area under the curve. […]
To initiate cell migration, the assembled transwell plate was placed in a 37° C., […] incubator for a specified time interval, typically between 30 and 120 minutes. […] To quantify migrated cells, plates were thawed at 37° C. in a humidified chamber, and then a sample volume was removed from each well and mixed with an equal volume of CyQuant (Invitrogen) working solution in opaque plates. The fluorescence intensity of each well represents the DNA content and is directly proportional to cell number. […]

CXCR5 [3] = molecular target: T1, CXCR5; test: HTRF cAMP assay, inhibition of forskolin-stimulated cAMP production in HEK293 cells expressing hCXCR5; parameters: expressed in transfected cells; host or cells: HEK293; settings: HEK293 cells expressing hCXCR5, 2 doses of compound (3 uM, 0.3 uM)
Excerpt: HTRF (homogeneous time resolved fluorescence) is a technology developed by Cisbio Bioassays based on TR-FRET (time-resolved fluorescence resonance energy transfer). Cisbio Bioassays has developed a wide selection of HTRF-based assays compatible with whole cells, thereby enabling functional assays run under more physiological conditions. cAMP kits are based on a competitive immunoassay using cryptate-labeled anti-cAMP antibody and d2-labeled cAMP. This assay allows the measurement of increase in intracellular cAMP upon Gs-coupled receptor activation as well as decrease in forskolin stimulated increase in cAMP upon Gi-coupled receptor activation. The IP-One assays are competitive immunoassays that use cryptate-labeled anti-IP1 monoclonal antibody and d2-labeled IP1. IP1 is a relatively stable downstream metabolite of IP3, and accumulates in cells following Gq receptor activation.
A cAMP assay was performed in the presence of Compound 14 to assess the activation of CXCR5 by the production of cAMP. HEK293 cells expressing hCXCR5 were incubated with CXCL13, and the inhibition of forskolin-stimulated cAMP production was quantified in cells in the absence and presence of Compound 14. […] This response is indicative of a reduction of decrease in forskolin-stimulated cAMP due to enhanced CXCR5 (Gi) activation.

Substance: Pal-HAVHAYRHRRLLS-amide [Compound 14]
- β-arrestin recruitment response curve, allosteric mode (CXCR5 [1]; compound co-incubated with CXCL13): left-shifted and higher maximal response curve
- β-arrestin recruitment response, agonist mode (CXCR5 [1]; dose curve of compound in the absence of CXCL13): lack of response
- shift of the bell-shaped ligand dose-response curve (chemotaxis) (CXCR5 [2]; CXCL13 dose-response): leftward shift
- AUC of the bell-shaped ligand dose-response curve (chemotaxis) (CXCR5 [2]): increase
- shift of cAMP responses to CXCL13 (inhibition of forskolin-stimulated cAMP production) (CXCR5 [3]): shifted leftward in a dose-dependent manner

— patent US20110300167A1, “CXCR5 RECEPTOR COMPOUNDS” (priority 2008, published 2011)
